These results are taken from patent US8796289B2 (AbbVie Inc., priority 2011, dated 2014).

The structures appear in SMILES notation.

In this test the target is GST-tagged-Wee1 kinase (Homo sapiens, UniProt P30291). The experiment in a line: Wee1 time-resolved fluorescence equilibrium binding assay (displacement of Oregon Green-labeled ATP-competitive kinase probe). The protocol: Wee1 kinase was assayed using a time-resolved fluorescence equilibrium binding assay monitoring displacement of a rapidly reversible Oregon Green-labeled ATP-competitive kinase probe (N-(2-(2-(2-(4-(4-(5-chloro-4-(2-(1-hydroxycyclobutyl)thiazol-5-yl)-1H-pyrrolo[2,3-b]pyridin-2-yl)phenyl)piperazin-1-yl)ethoxy)ethoxy)ethyl)-2′,7′-difluoro-3′,6′-dihydroxy-3-oxo-3H-spiro[isobenzofuran-1,9′-xanthene]-5-carboxamide) by competitive Wee1 inhibitors.
Sequence of GST-tagged-Wee1 kinase (P30291 whole entry): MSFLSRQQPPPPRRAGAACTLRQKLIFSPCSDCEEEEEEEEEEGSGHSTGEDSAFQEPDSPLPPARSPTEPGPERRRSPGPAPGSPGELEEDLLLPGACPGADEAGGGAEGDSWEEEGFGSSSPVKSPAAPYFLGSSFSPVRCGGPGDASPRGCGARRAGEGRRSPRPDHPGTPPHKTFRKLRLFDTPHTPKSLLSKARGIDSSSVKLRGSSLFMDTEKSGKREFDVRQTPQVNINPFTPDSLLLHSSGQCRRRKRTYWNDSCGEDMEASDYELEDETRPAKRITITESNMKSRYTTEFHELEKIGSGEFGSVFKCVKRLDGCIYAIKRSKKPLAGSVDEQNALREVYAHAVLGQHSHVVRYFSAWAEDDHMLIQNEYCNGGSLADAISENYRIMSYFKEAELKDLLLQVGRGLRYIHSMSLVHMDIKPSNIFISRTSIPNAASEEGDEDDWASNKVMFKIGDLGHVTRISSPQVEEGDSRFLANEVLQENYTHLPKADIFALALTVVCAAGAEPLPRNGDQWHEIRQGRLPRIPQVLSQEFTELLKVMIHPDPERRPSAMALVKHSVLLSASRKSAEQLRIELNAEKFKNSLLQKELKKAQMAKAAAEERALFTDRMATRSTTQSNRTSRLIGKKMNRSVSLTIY
With `CN1Cc2cc(Nc3ncc4c(=O)n(-c5c(Cl)cccc5Cl)nc(-c5nccs5)c4n3)ccc2C2(CC2)C1` [Example 320, 6-(2,6-dichlorophenyl)-2-[(2′-methyl-2′,3′-dihydro-1′H-spiro[cyclopropane-1,4′-isoquinolin]-7′-yl)amino]-8-(1,3-thiazol-2-yl)pyrimido[4,5-d]pyridazin-5(6H)-one], the Ki is 0.49 nM.
Then `Cc1cc(Nc2ncc3c(=O)n(-c4ccccc4Cl)nc(-c4ccccc4)c3n2)ccc1N1CCCN(C(C)C)CC1` [Example 206, 6-(2-chlorophenyl)-2-({3-methyl-4-[4-(propan-2-yl)-1,4-diazepan-1-yl]phenyl}amino)-8-phenylpyrimido[4,5-d]pyridazin-5(6H)-one], with 0.2 nM; and `C=CCn1nc(-c2cccs2)c2nc(Nc3ccc(N4CCN(C(C)C)CC4)c(OC)c3)ncc2c1=O` [Example 161, 6-allyl-2-{[4-(4-isopropylpiperazin-1-yl)-3-methoxyphenyl]amino}-8-(2-thienyl)pyrimido[4,5-d]pyridazin-5(6H)-one], with 3 nM.
With `CN1CCN(c2ccc(Nc3ncc4c(=O)n(-c5c(Cl)cccc5Cl)nc(-c5cnccn5)c4n3)cc2)CC1` [Example 271, 6-(2,6-dichlorophenyl)-2-{[4-(4-methylpiperazin-1-yl)phenyl]amino}-8-(pyrazin-2-yl)pyrimido[4,5-d]pyridazin-5(6H)-one], the Ki turned out to be 0.4 nM.
As to `Cc1cc(Nc2ncc3c(=O)n(-c4c(Cl)cccc4Cl)nc(-c4ccccn4)c3n2)ccc1N1CCCN(C)CC1` [Example 223], the affinity, expressed as Ki, was 0.2 nM.
Then `Cc1ccccc1-n1nc(-c2ccccc2)c2nc(Nc3ccc(N4CCN(C)CC4)cc3)ncc2c1=O` [Example 28, 6-(2-methylphenyl)-2-{[4-(4-methylpiperazin-1-yl)phenyl]amino}-8-phenylpyrimido[4,5-d]pyridazin-5(6H)-one], with 0.8 nM.
Then `CN1CCN(c2ccc(Nc3ncc4c(=O)n(-c5c(Cl)cccc5Cl)nc(-c5cccc(N6CCCCC6=O)c5)c4n3)cc2)CC1` [Example 93, 6-(2,6-dichlorophenyl)-2-{[4-(4-methylpiperazin-1-yl)phenyl]amino}-8-[3-(2-oxopiperidin-1-yl)phenyl]pyrimido[4,5-d]pyridazin-5(6H)-one], with 0.1 nM; and `CN1CCN(c2ccc(Nc3ncc4c(=O)n(-c5c(Cl)cccc5Cl)nc(-c5ccnc(C(=O)N6CCCC6)c5)c4n3)cc2)CC1` [Example 225, 6-(2,6-dichlorophenyl)-2-{[4-(4-methylpiperazin-1-yl)phenyl]amino}-8-[2-(pyrrolidin-1-ylcarbonyl)pyridin-4-yl]pyrimido[4,5-d]pyridazin-5(6H)-one], with 0.3 nM.
On to `CN1CCN(c2ccc(Nc3ncc4c(=O)n(-c5cccc(Cl)c5)nc(C5CCCC5)c4n3)cc2)CC1` [Example 56, 6-(3-chlorophenyl)-8-cyclopentyl-2-{[4-(4-methylpiperazin-1-yl)phenyl]amino}pyrimido[4,5-d]pyridazin-5(6H)-one], for which the affinity, expressed as Ki, was 63 nM.
Then `COCCn1ccc(-c2nn(-c3c(Cl)cccc3Cl)c(=O)c3cnc(Nc4ccc(N5CCN(C)CC5)cc4)nc23)n1` [Example 252, 6-(2,6-dichlorophenyl)-8-[1-(2-methoxyethyl)-1H-pyrazol-3-yl]-2-{[4-(4-methylpiperazin-1-yl)phenyl]amino}pyrimido[4,5-d]pyridazin-5(6H)-one], with 0.4 nM; and `C=CCn1nc(-c2cccs2)c2nc(Nc3ccc(N4CCCC4=O)cc3)ncc2c1=O` [Example 124, 6-allyl-2-{[4-(2-oxopyrrolidin-1-yl)phenyl]amino}-8-(2-thienyl)pyrimido[4,5-d]pyridazin-5(6H)-one], with 75 nM; and `CN1CCN(c2ccc(Nc3ncc4c(=O)n(-c5c(Cl)cccc5Cl)nc(-c5cccc(CNC6CCC6)c5)c4n3)cc2)CC1` [Example 158, 8-{3-[(cyclobutylamino)methyl]phenyl}-6-(2,6-dichlorophenyl)-2-{[4-(4-methylpiperazin-1-yl)phenyl]amino}pyrimido[4,5-d]pyridazin-5(6H)-one], with 0.2 nM.
In turn, `Cc1nn(-c2c(Cl)cccc2Cl)c(=O)c2cnc(Nc3ccc(C4CCNCC4)cc3)nc12` [Example 458, 6-(2,6-dichlorophenyl)-8-methyl-2-{[4-(piperidin-4-yl)phenyl]amino}pyrimido[4,5-d]pyridazin-5(6H)-one] had an inhibition constant Ki of 0.23 nM.
With `CN1CCN(c2ccc(Nc3ncc4c(=O)n(-c5ccccc5)nc(-c5cccc(Cl)n5)c4n3)cc2)CC1` [Example 73, 8-(6-chloropyridin-2-yl)-2-{[4-(4-methylpiperazin-1-yl)phenyl]amino}-6-phenylpyrimido[4,5-d]pyridazin-5(6H)-one] the figure was 3 nM; with `CN1CCN(c2ccc(Nc3ncc4c(=O)n(-c5c(Cl)cccc5Cl)nc(-c5ccc(N6CCCC6=O)cc5)c4n3)cc2)CC1` [Example 244, 6-(2,6-dichlorophenyl)-2-{[4-(4-methylpiperazin-1-yl)phenyl]amino}-8-[4-(2-oxopyrrolidin-1-yl)phenyl]pyrimido[4,5-d]pyridazin-5(6H)-one], 0.5 nM.
Then `Cc1nn(-c2c(Cl)cccc2Cl)c(=O)c2cnc(Nc3ccc4c(c3)CCN(C(=O)C(C)(C)O)C4)nc12` [Example 437, 6-(2,6-dichlorophenyl)-2-{[2-(2-hydroxy-2-methylpropanoyl)-1,2,3,4-tetrahydroisoquinolin-6-yl]amino}-8-methylpyrimido[4,5-d]pyridazin-5(6H)-one], with 0.8 nM.
Then `Cc1nn(-c2c(Cl)cccc2Cl)c(=O)c2cnc(Nc3cccc(N4CCN(C5CCOCC5)CC4)c3)nc12` [Example 509, 6-(2,6-dichlorophenyl)-8-methyl-2-({3-[4-(tetrahydro-2H-pyran-4-yl)piperazin-1-yl]phenyl}amino)pyrimido[4,5-d]pyridazin-5(6H)-one], with 1.2 nM; and `Cc1cc(Nc2ncc3c(=O)n(-c4ccccc4C)nc(-c4ccco4)c3n2)ccc1N1CCCN(C(C)C)CC1` [Example 246, 8-(furan-2-yl)-6-(2-methylphenyl)-2-({3-methyl-4-[4-(propan-2-yl)-1,4-diazepan-1-yl]phenyl}amino)pyrimido[4,5-d]pyridazin-5(6H)-one], with 0.3 nM; and `O=C1CCCN1c1ccc(Nc2ncc3c(=O)n(-c4ccccc4Cl)nc(-c4cccs4)c3n2)cc1` [Example 121, 6-(2-chlorophenyl)-2-{[4-(2-oxopyrrolidin-1-yl)phenyl]amino}-8-(2-thienyl)pyrimido[4,5-d]pyridazin-5(6H)-one], with 3 nM.
Regarding `C=CCn1nc(-c2ccco2)c2nc(Nc3ccc(CN(C)C)cc3)ncc2c1=O` [Example 137, 6-allyl-2-({4-[(dimethylamino)methyl]phenyl}amino)-8-(2-furyl)pyrimido[4,5-d]pyridazin-5(6H)-one], the affinity, expressed as Ki, was 22 nM.
With `CN1CCN(c2ccc(Nc3ncc4c(=O)n(-c5cccc(Cl)c5)nc(-c5ccc(Cl)cc5Cl)c4n3)cc2)CC1` [Example 44, 6-(3-chlorophenyl)-8-(2,4-dichlorophenyl)-2-{[4-(4-methylpiperazin-1-yl)phenyl]amino}pyrimido[4,5-d]pyridazin-5(6H)-one] the figure was 520 nM.
Then `Cc1nn(-c2c(Cl)cncc2Cl)c(=O)c2cnc(Nc3ccc4c(c3)CN(C)C4(C)C)nc12` [Example 488, 6-(3,5-dichloropyridin-4-yl)-8-methyl-2-[(1,1,2-trimethyl-2,3-dihydro-1H-isoindol-5-yl)amino]pyrimido[4,5-d]pyridazin-5(6H)-one], with 0.29 nM; and `CC1(C)CNCc2cc(Nc3ncc4c(=O)n(C5CCCCC5)nc(-c5ccccn5)c4n3)ccc21` [Example 294, 6-cyclohexyl-2-[(4,4-dimethyl-1,2,3,4-tetrahydroisoquinolin-7-yl)amino]-8-(pyridin-2-yl)pyrimido[4,5-d]pyridazin-5(6H)-one], with 629 nM; and `CN1CCN(c2ccc(Nc3ncc4c(=O)n(-c5ccccc5Cl)nc(-c5cccnc5)c4n3)cc2)CC1` [Example 98, 6-(2-chlorophenyl)-2-{[4-(4-methylpiperazin-1-yl)phenyl]amino}-8-(pyridin-3-yl)pyrimido[4,5-d]pyridazin-5(6H)-one], with 0.5 nM.
On to `CN1CCc2ccc(Nc3ncc4c(=O)n(-c5ccccc5Cl)nc(-c5cccs5)c4n3)cc2C1` [Example 167, 6-(2-chlorophenyl)-2-[(2-methyl-1,2,3,4-tetrahydroisoquinolin-7-yl)amino]-8-(2-thienyl)pyrimido[4,5-d]pyridazin-5(6H)-one], for which the affinity corresponds to a Ki of 0.4 nM.
In turn, `CNC(C)c1cccc(-c2nn(-c3c(Cl)cccc3Cl)c(=O)c3cnc(Nc4ccc(N5CCN(C)CC5)cc4)nc23)c1` (centres unmarked) [Example 186, 6-(2,6-dichlorophenyl)-8-{3-[1-(methylamino)ethyl]phenyl}-2-{[4-(4-methylpiperazin-1-yl)phenyl]amino}pyrimido[4,5-d]pyridazin-5(6H)-one] showed a Ki of 0.02 nM.
In turn, `Cc1ccccc1-n1nc(-c2cccs2)c2nc(Nc3ccc(S(=O)(=O)N4CCOCC4)cc3)ncc2c1=O` [Example 129, 6-(2-methylphenyl)-2-{[4-(morpholin-4-ylsulfonyl)phenyl]amino}-8-(2-thienyl)pyrimido[4,5-d]pyridazin-5(6H)-one] showed a Ki of more than 3140 nM.
`O=c1c2cnc(Nc3ccc4c(c3)CNCC43CC3)nc2c(-c2cccc(F)n2)nn1-c1c(Cl)cccc1Cl` [Example 257, 6-(2,6-dichlorophenyl)-2-(2′,3′-dihydro-1′H-spiro[cyclopropane-1,4′-isoquinolin]-7′-ylamino)-8-(6-fluoropyridin-2-yl)pyrimido[4,5-d]pyridazin-5(6H)-one] yielded a Ki of 2 nM.
For `Cc1nn(-c2c(Cl)cccc2Cl)c(=O)c2cnc(Nc3cccc(C(=O)N4CCN(CCO)CC4)c3)nc12` [Example 527, 6-(2,6-dichlorophenyl)-2-[(3-{[4-(2-hydroxyethyl)piperazin-1-yl]carbonyl}phenyl)amino]-8-methylpyrimido[4,5-d]pyridazin-5(6H)-one], the affinity, expressed as Ki, was 2.8 nM.
